Test results as given in paper PMC9019904, “AD Informer Set: Chemical tools to facilitate Alzheimer's disease drug discovery” (Alzheimer's & Dementia : Translational Research & Clinical …, 2022).
Converted amounts (≈) assume the structure as drawn. Blank lines part the entries; values can stand above or below the compound they belong to.

How the values were obtained:
[1] = test system: HMC3 (human microglia) cell line; test: pHrodo-myelin phagocytosis/cell viability high content imaging assay: viability (cell count, nuclear area, nuclear intensity)
Procedure, shortened: (§1)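 Immortalized microglia are treated with compound (10 μM, single concentration) for 48 h, the final 20 h alongside pHrodo-myelin. Data are the mean of duplicates, reported as % of untreated control.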

[2] = test system: HMC3 (human microglia) cell line; test: pHrodo-myelin phagocytosis/cell viability high content imaging assay: phagocytosis signal; format: cell-based
Procedure, shortened: (§2)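 Cells receive pHrodo-myelin, then are imaged at high content approximately 22 hours later. Phagocytosis signal and viability are captured in the same run. Three measurements are extracted per well.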

[3] = Kinetic solubility in aqueous buffer pH 7.4 by total chemiluminescent nitrogen determination (Analiza); conditions: aqueous buffer, pH 7.4, aqueous buffer, kinetic from dmso stock
[4] = test system: BV2 (mouse microglia) cell line; test: pHrodo-myelin phagocytosis/cell viability high content imaging assay: viability (cell count, nuclear area, nuclear intensity)
Procedure, shortened: as §1

[5] = test system: BV2 (mouse microglia) cell line; test: pHrodo-myelin phagocytosis/cell viability high content imaging assay: phagocytosis signal; format: cell-based
Procedure, shortened: as §2

solubility kinetic [3]: 6.5 µM (≈ 2.26 µg/mL)
SMILES: CCn1cc(C(=O)O)c(=O)c2c(N)c(F)c(NC3CCCCC3)cc21 [AS1842856]
Human microglial cytotoxicity at 10 μM (<70% control) ([1]; 10 μM, HMC3): Y (The compound was found to be cytotoxic (cell count threshold: <70% control) when human immortalized microglial cells were dosed at 10 μM (Y: yes))
Inhibition of human microglial phagocytosis at 10 μM (<70% control) ([2]; 10 μM, HMC3): Y (The compound was found to inhibit phagocytosis (response threshold: <70% control) when human immortalized microglial cells were dosed at 10 μM (Y: yes))

solubility kinetic [3]: 148 µM (≈ 66 µg/mL)
SMILES: CNc1nc(C)nc(N[C@H]2CCC[C@@H](C(=O)NCc3ccc(C#N)cc3C(F)(F)F)C2)n1 [GSK2256294A]
Inhibition of human microglial phagocytosis at 10 μM (<70% control) ([2]; HMC3, 10 μM): Y (The compound was found to inhibit phagocytosis (response threshold: <70% control) when human immortalized microglial cells were dosed at 10 μM (Y: yes))

solubility kinetic [3]: < 1.1 µM
SMILES: OC(c1cc(C23CC4CC(CC(C4)C2)C3)nc2c(Cl)cc(Cl)cc12)C1CCCCN1 (centres unmarked) [NSC305787]
Mouse microglial cytotoxicity at 10 μM (<70% control) ([4]; BV2, 10 μM): Y (The compound was found to be cytotoxic (cell count threshold: <70% control) when murine immortalized microglial cells were dosed at 10 μM (Y: yes))
Inhibition of human microglial phagocytosis at 10 μM (<70% control) ([2]; HMC3, 10 μM): Y (The compound was found to inhibit phagocytosis (response threshold: <70% control) when human immortalized microglial cells were dosed at 10 μM (Y: yes))

solubility kinetic [3]: 4.5 µM (≈ 1.4 µg/mL)
SMILES: CCN(CC)c1ccc(/C=N/NC(=O)c2ccc(O)cc2)cc1 [DY131]
Mouse microglial cytotoxicity at 10 μM (<70% control) ([4]; BV2, 10 μM): Y (The compound was found to be cytotoxic (cell count threshold: <70% control) when murine immortalized microglial cells were dosed at 10 μM (Y: yes))
Inhibition of human microglial phagocytosis at 10 μM (<70% control) ([2]; HMC3, 10 μM): Y (The compound was found to inhibit phagocytosis (response threshold: <70% control) when human immortalized microglial cells were dosed at 10 μM (Y: yes))

solubility kinetic [3]: 114 µM (≈ 50.6 µg/mL)
SMILES: c1ccc(-c2nn3c(c2-c2ccnc4cc(OCCN5CCOCC5)ccc24)CCC3)nc1 [LY2109761]
Inhibition of human microglial phagocytosis at 10 μM (<70% control) ([2]; HMC3, 10 μM): Y (The compound was found to inhibit phagocytosis (response threshold: <70% control) when human immortalized microglial cells were dosed at 10 μM (Y: yes))

solubility kinetic [3]: 2.7 µM (≈ 0.87 µg/mL)
SMILES: O=C(NNc1nc2cc(F)ccc2n2cccc12)c1cnccn1 [SC144]
Mouse microglial cytotoxicity at 10 μM (<70% control) ([4]; 10 μM, BV2): Y (The compound was found to be cytotoxic (cell count threshold: <70% control) when murine immortalized microglial cells were dosed at 10 μM (Y: yes))
Stimulation of mouse microglial phagocytosis at 10 μM (>150% control) ([5]; 10 μM, BV2): Y (The compound was found to stimulate phagocytosis (response threshold: >150% control) when murine immortalized microglial cells were dosed at 10 μM (Y: yes))

solubility kinetic [3]: 79.7 µM (≈ 32.9 µg/mL)
SMILES: Oc1cc(CNC(=S)/C=C/c2cc(O)c(O)c(Br)c2)cc(O)c1O [NT157]
Mouse microglial cytotoxicity at 10 μM (<70% control) ([4]; 10 μM, BV2): Y (The compound was found to be cytotoxic (cell count threshold: <70% control) when murine immortalized microglial cells were dosed at 10 μM (Y: yes))
Human microglial cytotoxicity at 10 μM (<70% control) ([1]; 10 μM, HMC3): Y (The compound was found to be cytotoxic (cell count threshold: <70% control) when human immortalized microglial cells were dosed at 10 μM (Y: yes))
Stimulation of mouse microglial phagocytosis at 10 μM (>150% control) ([5]; 10 μM, BV2): Y (The compound was found to stimulate phagocytosis (response threshold: >150% control) when murine immortalized microglial cells were dosed at 10 μM (Y: yes))

solubility kinetic [3]: 170 µM (≈ 61.4 µg/mL)
SMILES: CCCC[C@@H](C=O)NC(=O)[C@H](CC(C)C)NC(=O)OCc1ccccc1 [Calpeptin]
Stimulation of mouse microglial phagocytosis at 10 μM (>150% control) ([5]; BV2, 10 μM): Y (The compound was found to stimulate phagocytosis (response threshold: >150% control) when murine immortalized microglial cells were dosed at 10 μM (Y: yes))
Inhibition of human microglial phagocytosis at 10 μM (<70% control) ([2]; HMC3, 10 μM): Y (The compound was found to inhibit phagocytosis (response threshold: <70% control) when human immortalized microglial cells were dosed at 10 μM (Y: yes))

SMILES: C=CC[C@@H]1/C=C(\C)C[C@H](C)C[C@H](OC)[C@H]2O[C@@](O)(C(=O)C(=O)N3CCCC[C@H]3C(=O)O[C@H](/C(C)=C/[C@@H]3CC[C@@H](O)[C@H](OC)C3)[C@H](C)[C@@H](O)CC1=O)[C@H](C)C[C@@H]2OC [Tacrolimus]
Mouse microglial cytotoxicity at 10 μM (<70% control) ([4]; 10 μM, BV2): Y (The compound was found to be cytotoxic (cell count threshold: <70% control) when murine immortalized microglial cells were dosed at 10 μM (Y: yes))
Stimulation of mouse microglial phagocytosis at 10 μM (>150% control) ([5]; 10 μM, BV2): Y (The compound was found to stimulate phagocytosis (response threshold: >150% control) when murine immortalized microglial cells were dosed at 10 μM (Y: yes))
solubility kinetic [3]: 95.5 µM (≈ 76.8 µg/mL)

solubility kinetic [3]: 270 µM (≈ 92.2 µg/mL)
SMILES: O=C(O)c1cc2nc(-c3ccc(Cl)cc3)cc(C(F)(F)F)n2n1 [ZINC00184372]
Stimulation of mouse microglial phagocytosis at 10 μM (>150% control) ([5]; 10 μM, BV2): Y (The compound was found to stimulate phagocytosis (response threshold: >150% control) when murine immortalized microglial cells were dosed at 10 μM (Y: yes))

solubility kinetic [3]: 31.8 µM (≈ 14.3 µg/mL)
SMILES: Cc1ccccc1C(=O)Nc1ccc(C(=O)N2CCCC(O)c3cc(Cl)ccc32)c(C)c1 (centres unmarked) [Tolvaptan]
Stimulation of mouse microglial phagocytosis at 10 μM (>150% control) ([5]; BV2, 10 μM): Y (The compound was found to stimulate phagocytosis (response threshold: >150% control) when murine immortalized microglial cells were dosed at 10 μM (Y: yes))

solubility kinetic [3]: 42.1 µM (≈ 13.4 µg/mL)
SMILES: CC(Nc1nc(N2CCCC2)nc2ccccc12)c1ccccc1 (centres unmarked) [Importazole]
Mouse microglial cytotoxicity at 10 μM (<70% control) ([4]; 10 μM, BV2): Y (The compound was found to be cytotoxic (cell count threshold: <70% control) when murine immortalized microglial cells were dosed at 10 μM (Y: yes))
Human microglial cytotoxicity at 10 μM (<70% control) ([1]; 10 μM, HMC3): Y (The compound was found to be cytotoxic (cell count threshold: <70% control) when human immortalized microglial cells were dosed at 10 μM (Y: yes))
Inhibition of human microglial phagocytosis at 10 μM (<70% control) ([2]; 10 μM, HMC3): Y (The compound was found to inhibit phagocytosis (response threshold: <70% control) when human immortalized microglial cells were dosed at 10 μM (Y: yes))

solubility kinetic [3]: 5.9 µM (≈ 2.27 µg/mL)
SMILES: CN(C)CCCn1c(N)c(-c2nc3ccccc3[nH]2)c2nc3ccccc3nc21 [INI-43]
Inhibition of human microglial phagocytosis at 10 μM (<70% control) ([2]; 10 μM, HMC3): Y (The compound was found to inhibit phagocytosis (response threshold: <70% control) when human immortalized microglial cells were dosed at 10 μM (Y: yes))

solubility kinetic [3]: 26.6 µM (≈ 12.9 µg/mL)
SMILES: Cc1ccccc1NC(=O)CN1C(=O)N/C(=C/c2ccccc2OCc2ccc(C(=O)O)cc2)C1=O [CHEMBL1416302]
Stimulation of mouse microglial phagocytosis at 10 μM (>150% control) ([5]; BV2 cells, 10 μM): Y (The compound was found to stimulate phagocytosis (response threshold: >150% control) when murine immortalized microglial cells were dosed at 10 μM (Y: yes))

solubility kinetic [3]: 24.3 µM (≈ 7.5 µg/mL)
SMILES: Clc1ccc(N/N=C(\c2ccccc2)c2ccccn2)nc1 [JIB-04]
Mouse microglial cytotoxicity at 10 μM (<70% control) ([4]; 10 μM, BV2): Y (The compound was found to be cytotoxic (cell count threshold: <70% control) when murine immortalized microglial cells were dosed at 10 μM (Y: yes))
Stimulation of mouse microglial phagocytosis at 10 μM (>150% control) ([5]; 10 μM, BV2): Y (The compound was found to stimulate phagocytosis (response threshold: >150% control) when murine immortalized microglial cells were dosed at 10 μM (Y: yes))

SMILES: CC(C)(C)c1cnc(CSc2cnc(NC(=O)C3CCNCC3)s2)o1 [SNS-032]
Mouse microglial cytotoxicity at 10 μM (<70% control) ([4]; BV2, 10 μM): Y (The compound was found to be cytotoxic (cell count threshold: <70% control) when murine immortalized microglial cells were dosed at 10 μM (Y: yes))
Human microglial cytotoxicity at 10 μM (<70% control) ([1]; HMC3, 10 μM): Y (The compound was found to be cytotoxic (cell count threshold: <70% control) when human immortalized microglial cells were dosed at 10 μM (Y: yes))
Stimulation of human microglial phagocytosis at 10 μM (>150% control) ([2]; HMC3, 10 μM): Y (The compound was found to stimulate phagocytosis (response threshold: >150% control) when human immortalized microglial cells were dosed at 10 μM (Y: yes))
solubility kinetic [3]: 138 µM (≈ 52.3 µg/mL)

solubility kinetic [3]: 249 µM (≈ 92.1 µg/mL)
SMILES: Cc1cccc(-c2nn3c(c2-c2ccnc4ccc(C(N)=O)cc24)CCC3)n1 [Galunisertib]
Stimulation of mouse microglial phagocytosis at 10 μM (>150% control) ([5]; BV2, 10 μM): Y (The compound was found to stimulate phagocytosis (response threshold: >150% control) when murine immortalized microglial cells were dosed at 10 μM (Y: yes))

solubility kinetic [3]: 14.3 µM (≈ 7.96 µg/mL)
SMILES: N#Cc1ccc(COC[C@H]2O[C@@H](n3c(NCc4ccc(Cl)c(Cl)c4)nc4c(N)ncnc43)[C@H](O)[C@@H]2O)cc1 [VER-155008]
Mouse microglial cytotoxicity at 10 μM (<70% control) ([4]; 10 μM, BV2): Y (The compound was found to be cytotoxic (cell count threshold: <70% control) when murine immortalized microglial cells were dosed at 10 μM (Y: yes))
Stimulation of mouse microglial phagocytosis at 10 μM (>150% control) ([5]; 10 μM, BV2): Y (The compound was found to stimulate phagocytosis (response threshold: >150% control) when murine immortalized microglial cells were dosed at 10 μM (Y: yes))

solubility kinetic [3]: 123 µM (≈ 72.1 µg/mL)
SMILES: COc1cc(N2CCC(N3CCN(C)CC3)CC2)ccc1Nc1ncc(Cl)c(Nc2ccccc2P(C)(C)=O)n1 [Brigatinib]
Mouse microglial cytotoxicity at 10 μM (<70% control) ([4]; BV2, 10 μM): Y (The compound was found to be cytotoxic (cell count threshold: <70% control) when murine immortalized microglial cells were dosed at 10 μM (Y: yes))
Stimulation of mouse microglial phagocytosis at 10 μM (>150% control) ([5]; BV2, 10 μM): Y (The compound was found to stimulate phagocytosis (response threshold: >150% control) when murine immortalized microglial cells were dosed at 10 μM (Y: yes))

solubility kinetic [3]: 1.8 µM (≈ 0.802 µg/mL)
SMILES: CCS(=O)(=O)N1CCN(c2ccc(Nc3ncc(C(N)=O)c(NC4CC4)n3)cc2)CC1 [Cerdulatinib]
Mouse microglial cytotoxicity at 10 μM (<70% control) ([4]; BV2, 10 μM, cell count <70% control): Y (The compound was found to be cytotoxic (cell count threshold: <70% control) when murine immortalized microglial cells were dosed at 10 μM (Y: yes))
Human microglial cytotoxicity at 10 μM (<70% control) ([1]; HMC3, 10 μM, cell count <70% control): Y (The compound was found to be cytotoxic (cell count threshold: <70% control) when human immortalized microglial cells were dosed at 10 μM (Y: yes))
Inhibition of mouse microglial phagocytosis at 10 μM (<70% control) ([5]; BV2, 10 μM): Y (The compound was found to inhibit phagocytosis (response threshold: <70% control) when murine immortalized microglial cells were dosed at 10 μM (Y: yes))

solubility kinetic [3]: < 2.1 µM
SMILES: C[C@H](NC(=O)c1sccc1OCc1ccc(Cl)cc1)c1ccccc1 [AS1949490]
Inhibition of human microglial phagocytosis at 10 μM (<70% control) ([2]; 10 μM, HMC3): Y (The compound was found to inhibit phagocytosis (response threshold: <70% control) when human immortalized microglial cells were dosed at 10 μM (Y: yes))
